# Reference: patent US20240116985A1, “STAPLED PEPTIDES AND METHODS THEREOF” (priority 2020, published 2024)
# pIC50: −log10 of the molar value.
# What was measured:
# [1] = target: T1, beta-catenin/TCF4 engagement (Homo sapiens, UniProt P35222); experiment: Nano-BRET target engagement assay (B-cat-Halo & TCF4-Luc in HEK293 cells); format: cell-based; conditions: absolute IC50; read-out: NanoBRET Abs IC50
# T1 construct: expressed in transfected cells; host or cells: HEK293
# T1 sequence (P35222 1-781): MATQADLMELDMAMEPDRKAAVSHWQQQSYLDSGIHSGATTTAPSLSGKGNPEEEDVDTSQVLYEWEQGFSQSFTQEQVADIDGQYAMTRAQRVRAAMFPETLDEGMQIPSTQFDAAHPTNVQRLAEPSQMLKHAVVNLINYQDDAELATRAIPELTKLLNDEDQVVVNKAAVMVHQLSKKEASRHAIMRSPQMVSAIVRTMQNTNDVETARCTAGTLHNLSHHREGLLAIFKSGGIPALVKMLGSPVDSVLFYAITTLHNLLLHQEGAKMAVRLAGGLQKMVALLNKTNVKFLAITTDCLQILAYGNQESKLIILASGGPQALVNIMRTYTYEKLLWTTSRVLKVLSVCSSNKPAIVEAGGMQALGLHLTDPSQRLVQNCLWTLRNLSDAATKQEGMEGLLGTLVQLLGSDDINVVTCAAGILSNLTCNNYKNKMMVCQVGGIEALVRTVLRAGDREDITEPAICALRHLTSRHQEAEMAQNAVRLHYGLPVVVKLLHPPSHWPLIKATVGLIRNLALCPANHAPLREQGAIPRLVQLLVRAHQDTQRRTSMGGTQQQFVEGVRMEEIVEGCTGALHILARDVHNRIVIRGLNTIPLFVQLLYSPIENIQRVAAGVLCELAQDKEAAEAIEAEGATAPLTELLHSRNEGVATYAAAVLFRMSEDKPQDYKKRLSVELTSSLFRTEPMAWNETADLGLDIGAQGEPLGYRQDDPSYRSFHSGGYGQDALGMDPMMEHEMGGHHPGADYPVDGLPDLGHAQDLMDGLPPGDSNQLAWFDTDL
# [2] = target: T2, full-length beta-Catenin (Uniprot ID P35222) (Homo sapiens, UniProt P35222); experiment: Fluorescence polarization IC50 (beta-catenin / 5FAM-TCF4 10-53 competition); format: binding; conditions: fluorescence polarization; read-out: beta-Catenin FP IC50
# T2 construct: 10 nM full-length beta-Catenin (Uniprot ID P35222)
# T2 sequence (P35222 1-781): T1 sequence (P35222 1-781)
SMILES,pIC50 [1],pIC50 [2]
"CC(=O)N1CCC[C@]12CC=CCCCC1(CCCC=CCCCCCC[C@@](C)(C(=O)N[C@@H](Cc3ccccc3Cl)C(=O)N[C@@H](Cc3csc4ccccc34)C(=O)N[C@@H](CCC(N)=O)C(N)=O)NC(=O)[C@H](CC(N)=O)NC(=O)[C@H](Cc3ccccc3)NC(=O)[C@H](C)NC(=O)[C@H](C)NC(=O)[C@H](CC(=O)O)NC(=O)[C@H](CC(=O)O)NC1=O)NC(=O)[C@H](CC(C)(C)C)NC(=O)[C@H](CC(=O)O)NC2=O (stereo partly drawn) [I-1394, Ac-PL3-Asp-Npg-B5-Asp-Asp-Ala-Ala-Phe-Asn-S8-2C1F-BztA-Gln-NH2]",4.80,8.05
"CC(=O)N1CCC[C@]12CC=CCCCC1(CCCC=CCCCCCC[C@@](C)(C(=O)N[C@@H](Cc3ccccc3Cl)C(=O)N[C@@H](Cc3csc4ccccc34)C(=O)N[C@@H](CCC(N)=O)C(N)=O)NC(=O)[C@H](CCO)NC(=O)[C@H](Cc3ccccc3)NC(=O)[C@H](C)NC(=O)[C@H](C)NC(=O)[C@H](CC(=O)O)NC(=O)[C@H](CC(=O)O)NC1=O)NC(=O)[C@H](CC(C)(C)C)NC(=O)[C@H](CC(=O)O)NC2=O (stereo partly drawn) [I-1395, Ac-PL3-Asp-Npg-B5-Asp-Asp-Ala-Ala-Phe-Hse-S8-2C1F-BztA-Gln-NH2]",4.81,7.48
"CC(=O)N1CCC[C@]12CC=CCCCC1(CCCC=CCCCCCC[C@@](C)(C(=O)N[C@@H](Cc3ccccc3C(F)(F)F)C(=O)N[C@@H](Cc3csc4ccccc34)C(=O)N[C@@H](CCC(N)=O)C(N)=O)NC(=O)[C@H](CC(N)=O)NC(=O)[C@H](Cc3ccccc3)NC(=O)[C@H](C)NC(=O)[C@H](C)NC(=O)[C@H](CC(=O)O)NC(=O)[C@H](CC(=O)O)NC1=O)NC(=O)[C@H](CC(C)(C)C)NC(=O)[C@H](CC(=O)O)NC2=O (stereo partly drawn) [I-1396, Ac-PL3-Asp-Npg-B5-Asp-Asp-Ala-Ala-Phe-Asn-S8-2F3MeF-BztA-Gln-NH2]",4.82,7.48
"CC(=O)N1CCC[C@]12CC=CCCCC1(CCCC=CCCCCCC[C@@](C)(C(=O)N[C@@H](Cc3ccccc3C(F)(F)F)C(=O)N[C@@H](Cc3csc4ccccc34)C(=O)N[C@@H](CCC(N)=O)C(N)=O)NC(=O)[C@H](CCO)NC(=O)[C@H](Cc3ccccc3)NC(=O)[C@H](C)NC(=O)[C@H](C)NC(=O)[C@H](CC(=O)O)NC(=O)[C@H](CC(=O)O)NC1=O)NC(=O)[C@H](CC(C)(C)C)NC(=O)[C@H](CC(=O)O)NC2=O (stereo partly drawn) [I-1397, Ac-PL3-Asp-Npg-B5-Asp-Asp-Ala-Ala-Phe-Hse-S8-2F3MeF-BztA-Gln-NH2]",4.79,7.32

# Other lines, results leading:
pIC50 [1],pIC50 [2],SMILES
4.76,7.89,"CC(=O)N1CCC[C@]12CC=CCCCC1(CCCC=CCCCOC(=O)N3CC[C@@](C(=O)N[C@@H](Cc4ccsc4)C(=O)N[C@@H](Cc4csc5ccccc45)C(=O)N[C@@H](CCC(N)=O)C(N)=O)(C3)NC(=O)[C@H](CC(C)C)NC(=O)[C@H](Cc3ccccc3)NC(=O)[C@H](C)NC(=O)[C@H](C)NC(=O)[C@H](CC(=O)O)NC(=O)[C@H](CC(=O)O)NC1=O)NC(=O)[C@H](CC(C)C)NC(=O)[C@H](CC(=O)O)NC2=O (stereo partly drawn) [I-1399, Ac-PL3-Asp-Leu-B5-Asp-Asp-Ala-Ala-Phe-Leu-PyrS2-3Thi-BztA-Gln-NH2]"
4.69,8.30,"CCCC[C@@H]1NC(=O)[C@H](CC(=O)O)NC(=O)[C@]2(CC=CCCCC3(CCCC=CCCCOC(=O)N4CC[C@@](C(=O)N[C@@H](Cc5ccsc5)C(=O)N[C@@H](Cc5csc6ccccc56)C(=O)N[C@@H](CCC(N)=O)C(N)=O)(C4)NC(=O)[C@H](CC(C)C)NC(=O)[C@H](Cc4ccccc4)NC(=O)[C@H](C)NC(=O)[C@H](C)NC(=O)[C@H](CC(=O)O)NC(=O)[C@H](CC(=O)O)NC3=O)NC1=O)CCCN2C(C)=O (stereo partly drawn) [I-1400, Ac-PL3-Asp-nLeu-B5-Asp-Asp-Ala-Ala-Phe-Leu-PyrS2-3Thi-BztA-Gln-NH2]"
